How the values were obtained:
Experiment in all cases: Test E pre-/postemergence greenhouse test, plant response rating 0-100
Format in all cases: in vivo
[1] = tested on: Brazilian crabgrass (Digitaria horizontalis); settings: Postemergence, scale 0 to 100
Description: (§1) Seeds of plant species selected from corn (Zea mays), soybean (Glycine max), velvetleaf (Abutilon theophrasti), lambsquarters (Chenopodium album), wild poinsettia (Euphorbia heterophylla), palmer pigweed (Amaranthus palmeri), waterhemp (common waterhemp, Amaranthus rudis), surinam grass (Brachiaria decumbens), large (Lg) crabgrass (Digitaria sanguinalis), Brazilian crabgrass (Digitaria horizontalis), fall panicum (Panicum dichotomiflorum), giant foxtail (Setaria faberii), green foxtail (Setaria viridis), goosegrass (Eleusine indica), johnsongrass (Sorghum halepense), ragweed (common ragweed, Ambrosia elatior), barnyardgrass (Echinochloa crus-galli), sandbur (southern sandbur, Cenchrus echinatus), arrowleaf sida (Sida rhombifolia), Italian ryegrass (Lolium multiflorum), dayflower (Virginia (VA) dayflower, Commelina virginica), field bindweed (Convolvulus arvensis), morningglory (Ipomoea coccinea), nightshade (eastern black nightshade, Solanum ptycanthum), kochia (Kochia scoparia), yellow nutsedge (Cyperus esculentus), smartweed (ladysthumb smartweed, Polygonum persicaria), cocklebur (common cocklebur, Xanthium strumarium), and hairy beggarticks (Bidens pilosa), were planted into a silt loam soil and treated preemergence with test chemicals formulated in a non-phytotoxic solvent mixture which included a surfactant.
(§2) At the same time, plants from these crop and weed species and also waterhemp_RES1, (ALS & Triazine resistant common waterhemp, Amaranthus rudis), and waterhemp_RES2, (ALS & HPPD resistant common waterhemp, Amaranthus rudis) were planted in pots containing Redi-Earth® planting medium (Scotts Company, 14111 Scottslawn Road, Marysville, Ohio 43041) comprising spaghnum peat moss, vermiculite, wetting agent and starter nutrients were treated with postemergence applications of test chemicals formulated in the same manner. Plants ranged in height from 2 to 18 cm for postemergence treatments (1- to 4-leaf stage).
(§3) Treated plants and controls were maintained in a greenhouse for 14 to 21 days, after which time all species were compared to controls and visually evaluated. Plant response ratings, summarized in Table E, are based on a scale of 0 to 100 where 0 is no effect and 100 is complete control. A dash (-) response means no test result.

[2] = tested on: arrowleaf sida (Sida rhombifolia); settings: Postemergence
Description: as §1, §2, §3

[3] = tested on: barnyardgrass (Echinochloa crus-galli); settings: Postemergence, scale 0 to 100
Description: as §1, §2, §3

corn (Zea mays) = settings: Postemergence, scale 0 to 100
Description: as §1, §2, §3

[4] = tested on: dayflower (Virginia (VA) dayflower, Commelina virginica); settings: Postemergence, scale 0 to 100
Description: as §1, §2, §3

[5] = tested on: fall panicum (Panicum dichotomiflorum); settings: Postemergence, scale 0 to 100
Description: as §1, §2, §3

[6] = tested on: field bindweed (Convolvulus arvensis); settings: Postemergence, scale 0 to 100
Description: as §1, §2, §3

[7] = tested on: palmer pigweed (Amaranthus palmeri); settings: Postemergence, scale 0 to 100
Description: as §1, §2, §3

[8] = tested on: sandbur (southern sandbur, Cenchrus echinatus); settings: Postemergence, scale 0 to 100
Description: as §1, §2, §3

soybean (Glycine max) = settings: Postemergence, scale 0 to 100
Description: as §1, §2, §3

[9] = tested on: waterhemp (common waterhemp, Amaranthus rudis); settings: Postemergence, scale 0 to 100
Description: as §1, §2, §3

SMILES: CCn1cc(C(=O)c2cccs2)c(-c2cc(Cl)cc(Cl)c2)n1 [Compound 18]
- Plant response rating, Crabgrass, Brazil ([1]; 31 g ai/ha): 0
- Plant response rating, Crabgrass, Brazil ([1]; 62 g ai/ha): 5
- Plant response rating, Crabgrass, Brazil ([1]; 125 g ai/ha): 15
- Plant response rating, Crabgrass, Brazil ([1]; 250 g ai/ha): 20
- Plant response rating, Crabgrass, Brazil ([1]; 500 g ai/ha): 20
- Plant response rating, Arrowleaf Sida ([2]; 31 g ai/ha, scale 0 to 100): 60
- Plant response rating, Arrowleaf Sida ([2]; 62 g ai/ha, scale 0 to 100): 70
- Plant response rating, Arrowleaf Sida ([2]; 125 g ai/ha, scale 0 to 100): 80
- Plant response rating, Arrowleaf Sida ([2]; 250 g ai/ha, scale 0 to 100): 80
- Plant response rating, Arrowleaf Sida ([2]; 500 g ai/ha, scale 0 to 100 (0 no effect, 100 complete control)): 85
- Plant response rating, Barnyardgrass ([3]; 31 g ai/ha): 0
- Plant response rating, Barnyardgrass ([3]; 62 g ai/ha): 10
- Plant response rating, Barnyardgrass ([3]; 125 g ai/ha): 20
- Plant response rating, Barnyardgrass ([3]; 250 g ai/ha): 25
- Plant response rating, Barnyardgrass ([3]; 500 g ai/ha): 25
- Plant response rating, Corn (corn (Zea mays); 31 g ai/ha): 0
- Plant response rating, Corn (corn (Zea mays); 62 g ai/ha): 0
- Plant response rating, Corn (corn (Zea mays); 125 g ai/ha): 0
- Plant response rating, Corn (corn (Zea mays); 250 g ai/ha): 0
- Plant response rating, Corn (corn (Zea mays); 500 g ai/ha): 10
- Plant response rating, Dayflower, VA ([4]; 31 g ai/ha): 0
- Plant response rating, Dayflower, VA ([4]; 62 g ai/ha): 0
- Plant response rating, Dayflower, VA ([4]; 125 g ai/ha): 0
- Plant response rating, Dayflower, VA ([4]; 250 g ai/ha): 0
- Plant response rating, Dayflower, VA ([4]; 500 g ai/ha): 5
- Plant response rating, Panicum, Fall ([5]; 31 g ai/ha): 0
- Plant response rating, Panicum, Fall ([5]; 62 g ai/ha): 0
- Plant response rating, Panicum, Fall ([5]; 125 g ai/ha): 0
- Plant response rating, Panicum, Fall ([5]; 250 g ai/ha): 0
- Plant response rating, Panicum, Fall ([5]; 500 g ai/ha): 10
- Plant response rating, Field Bindweed ([6]; 31 g ai/ha): 0
- Plant response rating, Field Bindweed ([6]; 62 g ai/ha): 15
- Plant response rating, Field Bindweed ([6]; 125 g ai/ha): 25
- Plant response rating, Field Bindweed ([6]; 250 g ai/ha): 25
- Plant response rating, Field Bindweed ([6]; 500 g ai/ha): 35
- Plant response rating, Pigweed, Palmer ([7]; 31 g ai/ha): 90
- Plant response rating, Pigweed, Palmer ([7]; 62 g ai/ha): 90
- Plant response rating, Pigweed, Palmer ([7]; 125 g ai/ha): 90
- Plant response rating, Pigweed, Palmer ([7]; 250 g ai/ha): 98
- Plant response rating, Pigweed, Palmer ([7]; 500 g ai/ha): 98
- Plant response rating, Sandbur ([8]; 31 g ai/ha): 0
- Plant response rating, Sandbur ([8]; 62 g ai/ha): 0
- Plant response rating, Sandbur ([8]; 125 g ai/ha): 0
- Plant response rating, Sandbur ([8]; 250 g ai/ha): 15
- Plant response rating, Sandbur ([8]; 500 g ai/ha): 20
- Plant response rating, Soybean (soybean (Glycine max); 31 g ai/ha): 0
- Plant response rating, Soybean (soybean (Glycine max); 62 g ai/ha): 0
- Plant response rating, Soybean (soybean (Glycine max); 125 g ai/ha): 10
- Plant response rating, Soybean (soybean (Glycine max); 250 g ai/ha): 20
- Plant response rating, Soybean (soybean (Glycine max); 500 g ai/ha): 30
- Plant response rating, Waterhemp ([9]; 31 g ai/ha): 50
- Plant response rating, Waterhemp ([9]; 62 g ai/ha): 75
- Plant response rating, Waterhemp ([9]; 125 g ai/ha): 85
- Plant response rating, Waterhemp ([9]; 250 g ai/ha): 90
- Plant response rating, Waterhemp ([9]; 500 g ai/ha): 95
